Results reported in patent US20250381210A1, “METHODS OF TREATING VASCULAR DEMENTIA” (The Regents of the University of California, priority 2024, published 2025).

What was measured:
[1] = recent phase III clinical trials for psoriasis; cited from earlier work
[2] = test system: VaD mouse model; assay: Grid walking task after delayed piclidenoson treatment; type: in vivo; conditions: three weeks post piclidenoson treatment
Method: VaD in the mouse was modified from white matter stroke model. Briefly, the mice were anesthetized with 2% isoflurane and securely mounted onto a stereotaxic apparatus. Core body temperature of the mice was maintained at 36.5 to 37.5° C. A midline incision was made down the scalp, and a craniotomy was performed with a dental drill. A Nanoliter injector (World Precision Instruments) was used to infuse 27 μg/μL of L-NIO (Sigma-Aldrich, 400-600) in sterile saline (Hospira) with Micro4 Controller injector (World Precision Instruments), at the speed of 100 nL/min. To avoid damage to motor cortex, the glass pipette (Wrld Precision Instruments, 1B100F-4) containing the L-NIO was inserted through the cortex of the frontal lobe into the underlying subcortical WM at an angle of 36°. Three injections (each of 0.3 μL of L-NIO solution) were made in the following coordinates: AP +0.80 mm, ML +2.00 mm, DV −1.56 mm; AP +0.80 mm, ML +2.83 mm, DV −1.60 mm; and AP +0.80 mm, ML +3.66 mm, DV −1.61 mm. Localized vasoconstriction leads to focal ischemia in the subcortical WM. Female mice were excluded because estrogen is potentially preventative against ischemic stroke. Osmotic mini-pumps (1002, 1004) were subcutaneously implanted and connected to right lateral ventricle through brain infusion kit 3 (Alzet). The brain infusion kits were fixed onto the skull with super glue (Loctite, 45198). For 4-week treatment, 1004 mini-pumps were used to delivery 400 µM of piclidenoson (in 1% DMSO in saline) at the speed of 0.11 μL/h; For 2-week treatment, 1002 mini-pumps were used to deliver 200 μM of piclidenoson at the speed of 0.23 μL/h. For Grid walking test, the mice were tested 1-day pre-, 7-day, 30-day, and 60-day post-VaD in progressiveness investigation, and 1-day pre-, 4-day and 21-day post-VaD in piclidenoson treatment study. Behavior tests were scored by observers who were masked to the treatment group of the animals.

[3] = test system: A3AR; conditions: cited from earlier work
[4] = test system: VaD mouse model; assay: Novel Object Recognition (NOR) test after delayed piclidenoson treatment; type: in vivo; conditions: delayed treatment from 5 days after VaD induction, legend: one sample paired t test compared to 50%
Method: VaD in the mouse was modified from white matter stroke model. Briefly, the mice were anesthetized with 2% isoflurane and securely mounted onto a stereotaxic apparatus. Core body temperature of the mice was maintained at 36.5 to 37.5° C. A midline incision was made down the scalp, and a craniotomy was performed with a dental drill. A Nanoliter injector (World Precision Instruments) was used to infuse 27 μg/μL of L-NIO (Sigma-Aldrich, 400-600) in sterile saline (Hospira) with Micro4 Controller injector (World Precision Instruments), at the speed of 100 nL/min. To avoid damage to motor cortex, the glass pipette (Wrld Precision Instruments, 1B100F-4) containing the L-NIO was inserted through the cortex of the frontal lobe into the underlying subcortical WM at an angle of 36°. Three injections (each of 0.3 μL of L-NIO solution) were made in the following coordinates: AP +0.80 mm, ML +2.00 mm, DV −1.56 mm; AP +0.80 mm, ML +2.83 mm, DV −1.60 mm; and AP +0.80 mm, ML +3.66 mm, DV −1.61 mm. Localized vasoconstriction leads to focal ischemia in the subcortical WM. […] Osmotic mini-pumps (1002, 1004) were subcutaneously implanted and connected to right lateral ventricle through brain infusion kit 3 (Alzet). The brain infusion kits were fixed onto the skull with super glue (Loctite, 45198). […] All tests were performed 3-4 weeks after VaD. […] For NOR, the testing mice were allowed to explore an open field arena (30 cm×30 cm) with 2 identical objects for 12 min on the first day. Then the one object was replaced to a novel object and the mice were allowed to explore the 2 different objects for 8 min. The exploration was recorded and the time to explore each object was analyzed by ANY-maze. The data were presented as exploration ratio of time spent exploring the novel object versus both objects. For NOR, mice were habituated in an open field arena (41.5 cm×41.5 cm×41.5 cm) for 10 min. […] The exploration was recorded and the time to explore each object was analyzed by ANY-maze, and/or manually hand-scored. […]

[5] = test system: VaD mouse model; assay: c-Fos quantification in PFC (AC) and HPC (CA2/3) after delayed piclidenoson treatment; type: in vivo; conditions: VaD animals
Method: (§1) VaD in the mouse was modified from white matter stroke model. Briefly, the mice were anesthetized with 2% isoflurane and securely mounted onto a stereotaxic apparatus. Core body temperature of the mice was maintained at 36.5 to 37.5° C. A midline incision was made down the scalp, and a craniotomy was performed with a dental drill. A Nanoliter injector (World Precision Instruments) was used to infuse 27 μg/μL of L-NIO (Sigma-Aldrich, 400-600) in sterile saline (Hospira) with Micro4 Controller injector (World Precision Instruments), at the speed of 100 nL/min. To avoid damage to motor cortex, the glass pipette (Wrld Precision Instruments, 1B100F-4) containing the L-NIO was inserted through the cortex of the frontal lobe into the underlying subcortical WM at an angle of 36°. Three injections (each of 0.3 μL of L-NIO solution) were made in the following coordinates: AP +0.80 mm, ML +2.00 mm, DV −1.56 mm; AP +0.80 mm, ML +2.83 mm, DV −1.60 mm; and AP +0.80 mm, ML +3.66 mm, DV −1.61 mm. Localized vasoconstriction leads to focal ischemia in the subcortical WM. Female mice were excluded because estrogen is potentially preventative against ischemic stroke.
(§2) Immunostaining was performed by brain section blocking in 5% normal donkey serum for 1 hour at room temperature, incubating in primary antibody overnight at 4° C., and in secondary antibody for 1 hour at room temperature. For the performance using CD39 and Pdgfrβ antibodies, antigen retrieval using sodium citrate buffer ([…], pH 6.0), in pressure cooker for 3 min was applied before blocking. All sections were counterstained with 4′,6-diamidino-2-phenylindole (DAPI). The antibodies used in this study are listed below.
(§3) • 1. Quantification of MBP and NF160 volume for FIGS. 26I, 28M, 28N. Imaris (Bitplane, version 10.0.0) using surface function; all the channels were threshold with the same absolute intensity against the background. Because the absolute volume of cerebral white matter varies between coronal slices depending on the coordinate along anterior-posterior axis, it is difficult to directly compare the absolute volume of NF160 or MBP between groups. The volume of ipsilateral white matter is very similar to the contralateral white matter, we first normalized the volume of NF160 or MBP at the ipsilateral side to the contralateral side (no lesion), and then compare the normalized value between groups. This may be a more reasonable way to investigate how the axon reprojection and myelin regrowth is changed by piclidenoson (CF101) treatment. For each animal, 4 slices, with 300 μm interval across the lesion core along the anterior-posterior axis, were quantified. • 2. Quantification of absolute core sizes (FIG. 16F). For each animal, all the slices that cover the lesion core were stained with MBP, NF160, DAPI, and GFAP. The area of core is defined as brain region with NF160/MBP debris, high density of DAPI, and GFAP boundary. The size of core area is measured in ImageJ. The absolute core size is defined by the sum of core area×the slice thickness from all slices. • 3. Quantification of relative core sizes (FIG. 28I, 28L). For each animal, 4 slices, with 300 μm interval across the lesion core along the anterior-posterior axis, were quantified using ImageJ. The relative core sizes were normalized by the average of vehicle treated group. • 4. Quantification of c-Fos cells (FIG. 16R, 16S, 28Q, 28R). For slices from prefrontal cortex, the number of c-Fos cells were quantified by Imaris using spots function, and normalized with the number of neurons (NeuN+) in the same region of interest (ROI). For slices from hippocampus, the number of c-Fos cells were quantified by Imaris and normalized with the volume of ROI because it is difficult to normalize with the number of neurons due to compact pyramidal cell layer. The same quality threshold was used for all samples. • 5. Quantification of CD39 in human IHC (FIG. 28D, 28E). […]

[6] = test system: VaD mouse model; assay: Acute piclidenoson, infusion into lateral ventricle 30-min after VaD induction; lesion size and BBB leakage by immunostaining; type: in vivo; conditions: acute administration 30-min post stroke, for 1-2 weeks, direct infusion into lateral ventricle, vs vehicle
Method: as §1, §2
High-resolution confocal images in z-stacks were acquired (Nikon C2). Area measurements of the infarct core, WM axonal projections stained with NF160 and MBP were quantified with Imaris (Bitplane, version 10.0.0) using surface function; all the channels were threshold with the same absolute intensity against the background. […]
• 1. Quantification of MBP and NF160 volume for FIGS. 26I, 28M, 28N. […] For each animal, 4 slices, with 300 μm interval across the lesion core along the anterior-posterior axis, were quantified. • 2. Quantification of absolute core sizes (FIG. 16F). […] The size of core area is measured in ImageJ. […] Quantification of relative core sizes (FIG. 28I, 28L). For each animal, 4 slices, with 300 μm interval across the lesion core along the anterior-posterior axis, were quantified using ImageJ. […] Quantification of c-Fos cells (FIG. 16R, 16S, 28Q, 28R). For slices from prefrontal cortex, the number of c-Fos cells were quantified by Imaris using spots function, and normalized with the number of neurons (NeuN+) in the same region of interest (ROI). […]

[7] = test system: VaD mouse model; assay: Satb2 and Cux1 immunostaining in cortical Layer VI after delayed piclidenoson treatment; type: in vivo; conditions: motor somatosensory cortex
Method: as §1, §2, §3

[8] = test system: VaD mouse model; assay: Delayed piclidenoson (5 days after VaD induction); lesion size, axon and myelin volume by immunostaining; type: in vivo; conditions: delayed treatment from 5 days after VaD induction, vs vehicle; for VaD lesion size: examined 3 weeks after treatment
Method: as §1, §2
High-resolution confocal images in z-stacks were acquired (Nikon C2). Area measurements of the infarct core, WM axonal projections stained with NF160 and MBP were quantified with Imaris (Bitplane, version 10.0.0) using surface function; all the channels were threshold with the same absolute intensity against the background. The parameters for scanning were kept constant across treatment, and conditions.
as §3, with “(ROI).” for “(ROI). For slices from hippocampus, the number of c-Fos cells were quantified by Imaris and normalized with the volume of ROI because it is difficult to normalize with the number of neurons due to compact pyramidal cell layer. The same quality threshold was used for all samples. • 5. Quantification of CD39 in human IHC (FIG. 28D, 28E).”

CNC(=O)[C@H]1O[C@@H](n2cnc3c(NCc4cccc(I)c4)ncnc32)[C@H](O)[C@@H]1O [piclidenoson, 1-deoxy-1-[6-[(iodophenyl)methyl]amino]9H-purine-9-yl]-N-methyl-(-D-ribofuranuronamide]
safety in humans [1]: safely used in humans | grid walking task, motor deficit [2]: successfully rescued the motor deficit | grid walking task, motor deficit ([2]; listed as CF101): successfully rescued the motor deficit | grid walking task, motor deficit ([2]; listed as Pic): VaD_Veh vs VaD_Pic, ##p<0.01 | potency in A3AR action relative to A1AR and A2bAR ([3]; A3AR vs A1AR and A2bAR): 50 fold | non-specific effects on other adenosine receptors [3]: minimal non-specific effects on other adenosine receptors | NOR memory test, memory deficits (novel object preference) [4]: significantly reduced memory deficits | NOR memory test, memory deficits (novel object preference) ([4]; listed as CF101): significantly reduced memory deficits | NOR memory test, memory deficits (novel object preference) ([4]; listed as Pic): Con_Veh, Con_Pic, and VaD_Pic groups, *p<0.05 | c-Fos expression in HPC CA2/3, c-Fos+ cell numbers per mm^3 [5]: restored c-Fos expression | c-Fos expression in PFC anterior cingulate (AC), c-Fos/NeuN (%) [5]: restored c-Fos expression | c-Fos expression in HPC CA2/3, c-Fos+ cell numbers per mm^3 ([5]; listed as CF101): restored c-Fos expression | c-Fos expression in PFC anterior cingulate (AC), c-Fos/NeuN (%) ([5]; listed as CF101): restored c-Fos expression | c-Fos expression in HPC CA2/3, c-Fos+ cell numbers per mm^3 ([5]; listed as Pic): Con_Veh vs VaD_Pic, n.s.=not significant | c-Fos expression in PFC anterior cingulate (AC), c-Fos/NeuN (%) ([5]; listed as Pic): Con_Veh vs VaD_Pic, n.s.=not significant | VaD lesion size [6]: may reduce lesion size | blood brain barrier (BBB) leakage (immunoreactivity of mouse IgG) [6]: significantly reduced blood brain barrier (BBB) leakage | blood brain barrier (BBB) leakage (immunoreactivity of mouse IgG) ([6]; listed as CF101): reduced blood brain barrier (BBB) leakage | blood brain barrier (BBB) leakage (immunoreactivity of mouse IgG) ([6]; listed as Pic): Veh vs Pic, *p<0.05 | Cux1 expression, Cux1+/NeuN (%) in Layer VI above infarct lesion [7]: significantly ameliorated | Satb2 expression, Satb2+/NeuN (%) in Layer VI near infarct lesion [7]: significantly ameliorated | Satb2 expression, Satb2+/NeuN (%) in Layer VI near infarct lesion ([7]; listed as CD101): VaD_Veh vs VaD_CD101, *p<0.05 | Cux1 expression, Cux1+/NeuN (%) in Layer VI above infarct lesion ([7]; listed as CF101): significantly ameliorated | Satb2 expression, Satb2+/NeuN (%) in Layer VI near infarct lesion ([7]; listed as CF101): significantly ameliorated | Cux1 expression, Cux1+/NeuN (%) in Layer VI above infarct lesion ([7]; listed as Pic): Con_Veh vs VaD_Pic, n.s.=not significant | Satb2 expression, Satb2+/NeuN (%) in Layer VI near infarct lesion ([7]; listed as Pic): Con_Veh vs VaD_Pic, n.s.=not significant | VaD lesion size [8]: significant reduction of lesion size | VaD lesion size ([8]; listed as CF101): significant reduction of lesion size | VaD lesion size ([8]; listed as Pic): Veh vs Pic, *p<0.05 | axon volume / axonal projections (NF160 immunostaining) [8]: not changed | myelin volume / markers of myelination (MBP immunostaining) in affected WM [8]: significantly increased | axon volume / axonal projections (NF160 immunostaining) ([8]; listed as CF101): not changed | myelin volume / markers of myelination (MBP immunostaining) in affected WM ([8]; listed as CF101): significantly increased | axon volume / axonal projections (NF160 immunostaining) ([8]; listed as Pic): Veh vs Pic, n.s.=not significant | myelin volume / markers of myelination (MBP immunostaining) in affected WM ([8]; listed as Pic): Veh vs Pic, *p<0.05
